According to patent US10364240B2, “Aryl sulfonamides” (ChemoCentryx, Inc., priority 2002, dated 2019):
pIC50: −log10 of the molar value.

Legend:
[1] = test system: MDR1a-knockout mice; experiment: MDR1a-knockout mice colitis model, prophylactic administration; type: in vivo; conditions: female mice, 50 mg/kg twice a day subcutaneous, 14 weeks from age 10 weeks
Method: The MDR1a-knockout mice, which lack the P-glycoprotein gene, spontaneously develop colitis under specific pathogen-free condition. The pathology in these animals has been characterized as Th1-type T cell-mediated inflammation similar to ulcerative colitis in humans. Disease normally begins to develop at around 8-10 weeks after birth. However the ages at which disease emerges and the ultimate penetrance level often vary considerably among different animal facilities.
[drawing 328] was evaluated by prophylactic administration for its ability to delay disease onset. Female mice (n=34) were dosed with 50 mg/kg twice a day by subcutaneous injections for 14 consecutive weeks starting at age 10 weeks. […] Moreover, the number of mice developing diarrhea was also lower among compound-treated mice (17%), compared to mice receiving vehicle alone (24%)(FIG. 1).

[2] = biological target: T1, CCR9 (Homo sapiens, UniProt P51686); experiment: chemotaxis (conventional migration) assay and/or calcium mobilization (calcium flux) assay; type: cell-based; conditions: either or both of the chemotaxis assay and calcium mobilization assays; MOLT-4 cells, TECK
T1 construct: CCR9-expressing cells (such as a T cell line MOLT-4 cells)
T1 sequence (P51686 1-369): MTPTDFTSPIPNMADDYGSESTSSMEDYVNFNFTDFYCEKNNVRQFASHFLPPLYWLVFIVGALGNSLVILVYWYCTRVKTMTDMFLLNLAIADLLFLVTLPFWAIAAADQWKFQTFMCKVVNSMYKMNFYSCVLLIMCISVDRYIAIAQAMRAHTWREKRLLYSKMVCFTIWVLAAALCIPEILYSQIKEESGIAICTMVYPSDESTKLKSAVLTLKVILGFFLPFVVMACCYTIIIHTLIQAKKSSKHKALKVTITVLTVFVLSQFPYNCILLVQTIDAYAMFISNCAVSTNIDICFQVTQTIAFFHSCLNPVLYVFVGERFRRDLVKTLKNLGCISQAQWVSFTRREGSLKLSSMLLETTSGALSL
Method: MOLT-4 cells were obtained from the American Type Culture Collection (Manassas, Va.) and cultured in RPMI tissue culture medium supplemented with 10% fetal calf serum (FCS) in a humidified 5% CO2 incubator at 37° C. Recombinant human chemokine protein TECK was obtained from R&D Systems (Minneapolis, Minn.). ChemoTX® chemotaxis microchambers were purchased from Neuro Probe (Gaithersburg, Md.). CyQUANT® cell proliferation kits were purchased from Molecular Probes (Eugene, Oreg.). Calcium indicator dye Fluo-4 AM was purchased from Molecular Devices (Mountain View, Calif.).
Conventional migration assay was used to determine the efficacy of potential receptor antagonists in blocking migration mediated through CCR9. This assay was routinely performed using the ChemoTX® microchamber system with a 5-μm pore-sized polycarbonate membrane. To begin such an assay, MOLT-4 cells were harvested by centrifugation of cell suspension at 1000 PRM on a GS-6R Beckman centrifuge. The cell pellet was resuspended in chemotaxis buffer (HBSS with 0.1% BSA) at 5×10^6 cells/mL. Test compounds at desired concentrations were prepared from 10 mM stock solutions by serial dilutions in chemotaxis buffer. An equal volume of cells and compounds were mixed and incubated at room temperature for 15 minutes. Afterwards, 20 μL of the mixture was transferred onto the porus membrane of a migration microchamber, with 29 μL of 50 nM chemokine TECK protein placed at the lower chamber. Following a 150-minute incubation at 37° C., during which cells migrated against the chemokine gradient, the assay was terminated by removing the cell drops from atop the filter. To quantify cells migrated across the membrane, 5 μL of 7× CyQUANT® solution was added to each well in the lower chamber, and the fluorescence signal measured on a Spectrafluor Plus fluorescence plate reader (TECAN, Durham, N.C.). The degree of inhibition was determined by comparing migration signals betweeen compound-treated and untreated cells. IC50 calculation was further performed by non-linear squares regression analysis using Graphpad Prism (Graphpad Software, San Diego, Calif.).
Calcium flux assay measures an increase in intracellular calcium following ligand-induced receptor activation. In the screen of CCR9 antagonists, it was used as a secondary assay carried out on a FLIPR® machine (Molecular Devices, Mountain View, Calif.). To begin an assay, MOLT-4 cells were harvested by centrifugation of cell suspension, and resuspended to 1.5×10^6 cells/mL in HBSS (with 1% fetal calf serum). Cells were then labeled with a calcium indicator dye Fluo-4 AM for 45 minutes at 37° C. with gentle shaking. Following incubation, cells were pelletted, washed once with HBSS and resuspended in the same buffer at a density of 1.6×10^6 cells/mL. One hundred microliters of labeled cells were mixed with 10 μL of test compound at the appropriate concentrations on an assay plate. […] The degree of inhibition was determined by comparing calcium signals between compound-treated and untreated cells. IC50 calculations were further performed by non-linear squares regression analysis using Graphpad Prism (Graphpad Software, San Diego, Calif.).

Row | pIC50 [2] | Compound | also measured
1 | – | CC(C)(C)c1ccc(S(=O)(=O)Nc2ccc(Cl)cc2C(=O)c2ccncc2)cc1 | IBD-associated growth retardation [1]: prevented IBD-associated growth retardation; number of mice developing diarrhea ([1]; vehicle 24%): 17%
2 | > 6.00 | Cc1cc(C(=O)c2cc(Cl)ccc2NS(=O)(=O)c2ccc(-c3ncco3)cc2)ccn1 | –
3 | > 6.00 | CC(C)(c1ccc(S(=O)(=O)Nc2ccc(Cl)cc2C(=O)c2ccccn2)cc1)c1ncco1 | –
4 | > 6.00 | CC1(c2ccc(S(=O)(=O)Nc3ccc(Cl)cc3C(=O)c3cc[nH]n3)cc2)CCOCC1 | –
5 | > 6.00 | CC1COC(C)(c2ccc(S(=O)(=O)Nc3ccc(Cl)cc3C(=O)c3ccncc3)cc2)O1 (stereo not drawn) | –
6 | > 6.00 | C[C@@H]1CC(c2ccc(S(=O)(=O)Nc3ccc(Cl)cc3C(=O)c3cccnc3)cc2)C[C@H](C)O1 (stereo partly drawn) | –
7 | > 6.00 | Cc1ccc(C(=O)c2cc(Cl)ccc2NS(=O)(=O)c2ccc(C3C[C@@H](C)O[C@@H](C)C3)cc2)cn1 (stereo partly drawn) | –
8 | > 6.00 | C[C@@H]1CN(c2ccc(S(=O)(=O)Nc3ccc(Cl)cc3C(=O)c3cccnc3)cc2F)C[C@H](C)O1 | –
9 | > 6.00 | Cc1ccc(S(=O)(=O)Nc2ccc(Cl)cc2C(=O)c2ccncc2)cc1 | –
10 | > 6.00 | Cc1ccc(C(=O)c2cc(Cl)ccc2NS(=O)(=O)c2ccc(S(C)(=O)=O)cc2)cn1 | –
11 | > 6.00 | CS(=O)(=O)c1ccc(S(=O)(=O)Nc2ccc(Br)cc2C(=O)c2ccncc2)cc1 | –
12 | > 6.00 | CC(C)(C)c1ccc(S(=O)(=O)Nc2ccc(Cl)cc2C(=O)c2ncccn2)cc1 | –
13 | > 6.00 | O=C(c1ccncc1)c1cc(Br)ccc1NS(=O)(=O)c1ccc(OC(F)(F)F)cc1 | –
14 | > 6.00 | CC(C)(CO)c1ccc(S(=O)(=O)Nc2ccc(Cl)cc2C(=O)c2cc[n+]([O-])cc2)cc1 | –
15 | > 6.00 | CC(=O)OCC(C)(C)c1ccc(S(=O)(=O)Nc2ccc(Cl)cc2C(=O)c2ccncc2)cc1 | –
16 | > 6.00 | O=C(c1cccnc1)c1cc(Cl)ccc1NS(=O)(=O)c1ccc(-c2cnco2)cc1 | –
17 | > 6.00 | Cc1c(C(=O)c2cc(Cl)ccc2NS(=O)(=O)c2ccc(OC(C)C)cc2)ccc[n+]1[O-] | –
18 | > 6.00 | O=C(c1ccncc1)c1cc(Cl)ccc1NS(=O)(=O)c1ccc(Br)cc1 | –
19 | > 6.00 | CSc1cc(C(=O)c2cc(Cl)ccc2NS(=O)(=O)c2ccc(C(C)(C)C)cc2)ccn1 | –
20 | > 6.00 | COc1cc(C(=O)c2cc(Cl)ccc2NS(=O)(=O)c2ccc(C(C)(C)C)cc2)ccn1 | –
21 | > 6.00 | COC(=O)CCc1ccc(S(=O)(=O)Nc2ccc(Cl)cc2C(=O)c2ccc(C)nc2)cc1 | –
22 | > 6.00 | Cc1ccc(C(=O)c2cc(Cl)ccc2NS(=O)(=O)c2ccc(OC(F)(F)F)cc2)c[n+]1[O-] | –

Row | pIC50 [2] | Compound | also measured
23 | > 6.00 | Cc1ccc(C(=O)c2cc(Cl)ccc2NS(=O)(=O)c2ccc(OC(C)C)cc2)c[n+]1[O-] | –
24 | > 6.00 | CC(C)(C)c1ccc(S(=O)(=O)Nc2ccc(Cl)cc2C(=O)c2ccc(S(C)(=O)=O)nc2)cc1 | –
25 | > 6.00 | O=C(c1ncccn1)c1cc(Cl)ccc1NS(=O)(=O)c1ccc(-c2cnco2)cc1 | –
26 | > 6.00 | O=C(c1cc[n+]([O-])cc1)c1cc(Cl)ccc1NS(=O)(=O)c1ccc(-c2cnco2)cc1 | –
27 | > 6.00 | CC(C)(C)c1ccc(S(=O)(=O)Nc2ccc(Cl)cc2C(=O)c2cccc[n+]2[O-])cc1 | –
28 | > 6.00 | Cc1nc(C)c(-c2ccc(S(=O)(=O)Nc3ccc(Cl)cc3C(=O)c3ccncc3)cc2)o1 | –
29 | > 6.00 | O=C(c1ccncc1)c1cc(Cl)ccc1NS(=O)(=O)c1ccc2c(c1)CNCC2 | –
30 | > 6.00 | CCc1ccc(S(=O)(=O)Nc2ccc(Br)cc2C(=O)c2ccncc2)cc1 | –
31 | > 6.00 | COC(=O)CCc1ccc(S(=O)(=O)Nc2ccc(Cl)cc2C(=O)c2cccnc2C)cc1 | –
32 | > 6.00 | CC(C)(C)c1ccc(S(=O)(=O)Nc2ccc(Cl)cc2C(=O)c2cnccn2)cc1 | –
33 | > 6.00 | CC(C)(C)c1ccc(S(=O)(=O)Nc2c(Cl)cccc2C(=O)c2ccncc2)cc1 | –
34 | > 6.00 | Cc1c(C(=O)c2cc(Cl)ccc2NS(=O)(=O)c2ccc(OC(F)(F)F)cc2)ccc[n+]1[O-] | –
35 | > 6.00 | O=C(c1cccnc1)c1cc(Cl)ccc1NS(=O)(=O)c1ccc(-c2cocn2)cc1 | –
36 | > 6.00 | CC(C)(c1ccc(S(=O)(=O)Nc2cc(F)c(F)cc2C(=O)c2cccnc2)cc1)c1ncco1 | –
37 | < 6.00 | CS(=O)(=O)c1ccc(S(=O)(=O)Nc2ccc(Cl)cc2C(=O)c2cccnc2)cc1 | –
38 | < 6.00 | COc1ccc(S(=O)(=O)Nc2ccc(Cl)cc2C(=O)c2ccccn2)cc1 | –
39 | < 6.00 | Cc1cc(C(=O)c2cc(Cl)ccc2NS(=O)(=O)c2ccc(S(C)(=O)=O)cc2)ccn1 | –
40 | < 6.00 | COC(=O)CCc1ccc(S(=O)(=O)Nc2ccc(Cl)cc2C(=O)c2ccnc(C)c2)cc1 | –
41 | < 6.00 | O=C(c1cccnc1)c1cc(Cl)ccc1NS(=O)(=O)c1ccc(-c2nccs2)cc1 | –
42 | < 6.00 | C[C@H]1OC(C)(c2ccc(S(=O)(=O)Nc3ccc(Cl)cc3C(=O)c3ccncc3)cc2)O[C@@H]1C | –
43 | > 6.00 | COc1c(Cl)ccc(NS(=O)(=O)c2ccc(C(C)(C)C)cc2)c1C(=O)c1ccncc1 [drawing 475] | –
44 | < 6.00 | COc1c(Cl)ccc(NS(=O)(=O)c2ccc(C(C)(C)C)cc2)c1C(=O)c1ccncc1 [drawing 520] | –
